Assay results from PubChem BioAssay (NCI).
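Growth conditions: 96-well plates. Treatment: test compound, 48 hours, 5 concentrations. Analysis: linear interpolation between bracketing concentrations; unreached endpoints set to highest concentration. At the GI50, growth is halved. TGI: concentration producing complete growth inhibition.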

Tests used:
Assay in all cases: DTP human tumour cell line panel, 48 h
OVCAR-5 ovarian = test system: OVCAR-5 ovarian
COLO 205 colon = test system: COLO 205 colon
SW-620 colon = test system: SW-620 colon
MOLT-4 leukemia = test system: MOLT-4 leukemia
BT-549 breast = test system: BT-549 breast
SNB-75 CNS = test system: SNB-75 CNS
RXF 393 renal = test system: RXF 393 renal
UACC-257 melanoma = test system: UACC-257 melanoma
NCI-H23 lung = test system: NCI-H23 lung
NCI/ADR-RES ovarian = test system: NCI/ADR-RES ovarian
K-562 leukemia = test system: K-562 leukemia
SK-MEL-2 melanoma = test system: SK-MEL-2 melanoma
TK-10 renal = test system: TK-10 renal
HT29 colon = test system: HT29 colon
DU-145 prostate = test system: DU-145 prostate
OVCAR-3 ovarian = test system: OVCAR-3 ovarian
NCI-H460 lung = test system: NCI-H460 lung
UO-31 renal = test system: UO-31 renal
SNB-19 CNS = test system: SNB-19 CNS
KM12 colon = test system: KM12 colon
UACC-62 melanoma = test system: UACC-62 melanoma
CAKI-1 renal = test system: CAKI-1 renal
SK-MEL-28 melanoma = test system: SK-MEL-28 melanoma
LOX IMVI melanoma = test system: LOX IMVI melanoma
SK-MEL-5 melanoma = test system: SK-MEL-5 melanoma
HCT-15 colon = test system: HCT-15 colon
PC-3 prostate = test system: PC-3 prostate
MDA-MB-435 = test system: MDA-MB-435
T-47D breast = test system: T-47D breast
MALME-3M melanoma = test system: MALME-3M melanoma
OVCAR-4 ovarian = test system: OVCAR-4 ovarian
U251 CNS = test system: U251 CNS
SK-OV-3 ovarian = test system: SK-OV-3 ovarian
M14 melanoma = test system: M14 melanoma
RPMI-8226 leukemia = test system: RPMI-8226 leukemia
SF-295 CNS = test system: SF-295 CNS
ACHN renal = test system: ACHN renal
HS 578T breast = test system: HS 578T breast
HOP-92 NSCLC = test system: HOP-92 NSCLC
NCI-H226 lung = test system: NCI-H226 lung
EKVX NSCLC = test system: EKVX NSCLC
786-0 renal = test system: 786-0 renal
NCI-H522 lung = test system: NCI-H522 lung
MCF7 breast = test system: MCF7 breast
SN12C renal = test system: SN12C renal
SR leukemia = test system: SR leukemia
HCT-116 colon = test system: HCT-116 colon
HOP-62 NSCLC = test system: HOP-62 NSCLC
CCRF-CEM leukemia = test system: CCRF-CEM leukemia
A498 renal = test system: A498 renal
OVCAR-8 ovarian = test system: OVCAR-8 ovarian
SF-268 CNS = test system: SF-268 CNS
SF-539 CNS = test system: SF-539 CNS
A549 NSCLC = test system: A549 NSCLC
MDA-MB-231 breast = test system: MDA-MB-231 breast
IGROV1 ovarian = test system: IGROV1 ovarian

O=C1Nc2ccccc2/C1=C\c1c(Cl)nc2sccn12
GI50 (OVCAR-5 ovarian): 3.06 µM | TGI (OVCAR-5 ovarian): 9.39 µM | GI50 (COLO 205 colon): 1.11 µM | TGI (COLO 205 colon): 5.97 µM | GI50 (SW-620 colon): 3 µM | TGI (SW-620 colon): > 58.9 µM | GI50 (MOLT-4 leukemia): 3.52 µM | TGI (MOLT-4 leukemia): > 100 µM | GI50 (BT-549 breast): 1.15 µM | TGI (BT-549 breast): 12.7 µM | GI50 (SNB-75 CNS): 3.23 µM | TGI (SNB-75 CNS): 8.34 µM | GI50 (RXF 393 renal): 3.2 µM | TGI (RXF 393 renal): 19 µM | GI50 (UACC-257 melanoma): 8.03 µM | TGI (UACC-257 melanoma): > 70.8 µM | GI50 (NCI-H23 lung): 4.7 µM | TGI (NCI-H23 lung): 17.1 µM | GI50 (NCI/ADR-RES ovarian): 1.26 µM | TGI (NCI/ADR-RES ovarian): 7.64 µM | TGI (K-562 leukemia): > 100 µM | GI50 (SK-MEL-2 melanoma): 4.16 µM | TGI (SK-MEL-2 melanoma): > 41.2 µM | GI50 (TK-10 renal): 3.24 µM | TGI (TK-10 renal): 8.21 µM | GI50 (HT29 colon): 1.32 µM | TGI (HT29 colon): > 32.2 µM | GI50 (DU-145 prostate): 5.75 µM | TGI (DU-145 prostate): 53.4 µM | GI50 (OVCAR-3 ovarian): 1.36 µM | TGI (OVCAR-3 ovarian): 3.73 µM | GI50 (NCI-H460 lung): 2.76 µM | TGI (NCI-H460 lung): 29.8 µM | GI50 (UO-31 renal): 2.69 µM | TGI (UO-31 renal): 16.8 µM | GI50 (SNB-19 CNS): 6.78 µM | TGI (SNB-19 CNS): 37.7 µM | GI50 (KM12 colon): 0.67 µM | TGI (KM12 colon): 19.4 µM | GI50 (UACC-62 melanoma): 1.34 µM | TGI (UACC-62 melanoma): 11.9 µM | GI50 (CAKI-1 renal): 1.22 µM | TGI (CAKI-1 renal): 4.8 µM | GI50 (SK-MEL-28 melanoma): 4.91 µM | TGI (SK-MEL-28 melanoma): 26.8 µM | GI50 (LOX IMVI melanoma): 3.45 µM | TGI (LOX IMVI melanoma): 17.4 µM | GI50 (SK-MEL-5 melanoma): 1.77 µM | TGI (SK-MEL-5 melanoma): 8.51 µM | GI50 (HCT-15 colon): 1.18 µM | TGI (HCT-15 colon): 8.46 µM | GI50 (PC-3 prostate): 2.44 µM | TGI (PC-3 prostate): 23.9 µM | GI50 (MDA-MB-435): 0.441 µM | TGI (MDA-MB-435): 1.11 µM | GI50 (T-47D breast): 8.88 µM | TGI (T-47D breast): 33.9 µM | GI50 (MALME-3M melanoma): 5.48 µM | TGI (MALME-3M melanoma): > 44.7 µM | GI50 (OVCAR-4 ovarian): 13.9 µM | TGI (OVCAR-4 ovarian): > 61.4 µM | GI50 (U251 CNS): 2.45 µM | TGI (U251 CNS): 8.31 µM | GI50 (SK-OV-3 ovarian): 4.18 µM | TGI (SK-OV-3 ovarian): 10.8 µM | GI50 (M14 melanoma): 2.02 µM | TGI (M14 melanoma): 9.23 µM | GI50 (RPMI-8226 leukemia): 1.17 µM | TGI (RPMI-8226 leukemia): 4.48 µM | GI50 (SF-295 CNS): 1.11 µM | TGI (SF-295 CNS): 3.24 µM | GI50 (ACHN renal): 3.12 µM | TGI (ACHN renal): 18.2 µM | GI50 (HS 578T breast): 4.14 µM | TGI (HS 578T breast): 35.7 µM | GI50 (HOP-92 NSCLC): 4.31 µM | TGI (HOP-92 NSCLC): 11.1 µM | GI50 (NCI-H226 lung): 6.11 µM | TGI (NCI-H226 lung): 16 µM | GI50 (EKVX NSCLC): 1.88 µM | TGI (EKVX NSCLC): 13.8 µM | GI50 (786-0 renal): 1.32 µM | TGI (786-0 renal): 4.94 µM | GI50 (NCI-H522 lung): 3.9 µM | TGI (NCI-H522 lung): 29.8 µM | GI50 (MCF7 breast): 0.66 µM | TGI (MCF7 breast): 17.3 µM | GI50 (SN12C renal): 6.84 µM | TGI (SN12C renal): 20.6 µM | GI50 (SR leukemia): 0.359 µM | TGI (SR leukemia): > 100 µM | GI50 (HCT-116 colon): 1.94 µM | TGI (HCT-116 colon): 12.8 µM | GI50 (HOP-62 NSCLC): 1.82 µM | TGI (HOP-62 NSCLC): 12.9 µM | GI50 (CCRF-CEM leukemia): 2.68 µM | TGI (CCRF-CEM leukemia): 15.8 µM | GI50 (A498 renal): 9.38 µM | TGI (A498 renal): 22.4 µM | GI50 (OVCAR-8 ovarian): 3.85 µM | TGI (OVCAR-8 ovarian): 35.8 µM | GI50 (SF-268 CNS): 5.41 µM | TGI (SF-268 CNS): 29.5 µM | GI50 (SF-539 CNS): 4.47 µM | TGI (SF-539 CNS): > 43.3 µM | GI50 (A549 NSCLC): 3.51 µM | TGI (A549 NSCLC): > 43.1 µM | GI50 (MDA-MB-231 breast): 6.87 µM | TGI (MDA-MB-231 breast): 22.8 µM | GI50 (IGROV1 ovarian): 5.05 µM | TGI (IGROV1 ovarian): > 54.6 µM
